Results reported in patent US6495680B1, “Helices and nanotubes on folding compositions and method of making same” (The University of Toledo, priority 2000, dated 2002).

Test: Solubility of oligomers in organic solvents
Format: physicochemical
Source text: Oligomers such as the homologues H, K, L, M, N, and O are synthesized by treating acid chloride with the corresponding amines.
From H to N, all the amide-H resonances appear at positions >9.2 ppm. […] That one amide-H resonance, appears at δ8.86.

solubility in DMF (DMF): increasingly insoluble
behaviour of the freshly prepared compound in DMF on standing (freshly prepared, added to DMF, standing at room temperature, precipitation faster at elevated temperatures): gradually precipitate out
Structure (SMILES): COc1ccccc1NC(=O)c1cc(NC(=O)c2cc([N+](=O)[O-])c(OC)cc2OC)c(OC)cc1OC [K]
